Results on three molecules are retold here after paper PMC12210252 (2025).

In test [1] the test system is AptT4 (SH-5′-AptT4) (DNA, aptamer) CGCCGTTGGTGTTCGGTCAGGCTTCCGTGGCAACGGGGCAAAATGGTAATCGCGGGGAACC
The test can be described thus: SnS2 field-effect transistor, Langmuir isotherm fit. Particulars: 137 mM NaCl, 2.7 mM KCl, 0.5 mM MgCl2; 1× PBS (10 mM Na2HPO4, 2 mM KH2PO4), pH 7.4; aptamer immobilised with PEG.

For test [2] the test system is unchanged. The experiment in a line: SnS2 field-effect transistor, selectivity test. Particulars: 137 mM NaCl, 2.7 mM KCl, 0.5 mM MgCl2; 1× PBS, pH 7.4; tested at 10 nM against 1 pM T4; low response.

In turn, `N[C@@H](Cc1cc(I)c(Oc2cc(I)c(O)c(I)c2)c(I)c1)C(=O)O` came in with a K d in test [1] of 0.0144 ± 0.0008 nM.
With `CC(C)(c1ccc(O)cc1)c1ccc(O)cc1`, the binding entry in test [2] is recorded as “no”.
Same read-out and setting: next, `N[C@@H](Cc1cc(I)c(Oc2ccc(O)c(I)c2)c(I)c1)C(=O)O`: “no”.
